The text below walks through data of patent US20070172469A1, “Methods For Inhibiting Viral Replication In Vivo” (priority 2002, published 2007).

Like-named read-outs stand apart in the source and are kept apart here. Bounds are passed on as bounds.

In data set [1] the test system is HCV. The data set is described as follows: In vitro HCV RNA replication assay in AVA5 cells (dot blot). The data set is classed as cell-based, Hepatitis C virus (HCV). To be noted: for IC50 / IC90: HCV mRNA levels.
Data set [2] has as its system AVA5 cells. The data set is described as follows: Actin mRNA level in AVA5 cells (nonspecific inhibitory activity). The data set is classed as cell-based, human. To be noted: 3 days, ADI-PEG20 0.01 IU/ml, alpha interferon 10 IU/ml, ribavirin 100 μM.
Data set [3] can be described thus: Toxicity in AVA5 cells, neutral red dye uptake. Particulars: human, AVA5 cells (HCV RNA replicating cell line derived from Huh7).
The subject of data set [4] is HCV. Particulars: cited from earlier work.
The conditions of data set [5]: cited from earlier work.
[6] abbreviates: humans chronically infected with HCV.

As usually defined, the inhibition is the percentage by which the read-out fell short of the control. A low value points to a weak effect. Usually CC50 stands for the concentration that lowers cell viability or growth by half.

Take `NC(=O)c1ncn([C@@H]2O[C@H](CO)[C@@H](O)[C@H]2O)n1` [ribavirin, 1-β-D-ribo-furanosyl-1,2,4-trizole-3-carboxamide]: the IC50 in data set [1] (Hepatitis C virus, 72 h, AVA5 cells, 3 days, read-out: IC50) was over 10 µM. Also, the IC90 in data set [1] (Hepatitis C virus, 72 h, AVA5 cells, 3 days, read-out: IC90) is over 10 µM. This compound came in with an inhibition at 100 µM in data set [1] (Hepatitis C virus, Ava5, 72 h) of 25%. In addition, the “mRNA % inhibition of actin” value in data set [2] is given as 98%. In data set [3], this compound had a CC50 at 3 days of 74 µM.
In the case of alpha interferon, the “% inhibition of HCV” value in data set [1] (AVA5 cells, 3 days, ADI-PEG20 0.01 IU/ml, alpha interferon 10 IU/ml, ribavirin 100 μM) was 92%. In data set [1] (AVA5 cells, 3 days), the IC50 is recorded as 2.1 IU/ml and the IC90 worked out at 9.0 IU/ml. In data set [1] (selectivity index CC50/EC50, AVA5 cells), the SI is recorded as over 4762. Moreover, in data set [4] (setting [6]), the “patients in whom effective” value was about 50% and the “treatment required to achieve a 50% reduction in HCV titers” value is 3-6 months. Further, in data set [4] (various clinical trials), the “patients who initially responded to the therapy” value was “approximately 40%” and the “responders who relapsed after the treatment ended” value was 70%. Moreover, the “patients with influenza-like illness with fever, chills, myalgias and malaise” value in data set [5] (PEG and non PEG formulated versions) is given as “up to 82%”. Further, the “patients with neuropsychiatric complications” value in data set [5] (depression, irritability, anxiety) was about 20%. In addition, in data set [5] (human, in vivo), the alopecia was about 5% and the “bone marrow suppression with granulocytopenia, anemia or thrombocytopenia” value is reported as about 5%. Moreover, in data set [2], the “mRNA % inhibition of actin” value is 11%.
